The SangsterLogP compilation

Experiment: method code SF-AS, from DOI: 10.1177/1934578x0700201005
Conditions: pH 7.4
Work on `COc1cccc(-c2cc(=O)c3ccccc3o2)c1` yielded a logD of 3.26.
With `COc1ccc(-c2cc(=O)c3ccccc3o2)cc1` the logD was 3.21.
With `O=c1cc(-c2ccccc2)oc2cccc(O)c12` the logD was 3.39.
Compound `O=c1c(O)c(-c2ccccc2)oc2ccccc12` has a logD of 3.52.
Compound `COc1cccc2oc(-c3ccccc3)cc(=O)c12` has a logD of 2.98.
Work on `COc1ccc2c(=O)cc(-c3ccccc3)oc2c1` yielded a logD of 3.12.
With `O=c1cc(-c2ccccc2)oc2c(O)cccc12` the logD was 3.03.
With `O=c1cc(-c2cccc(O)c2)oc2ccccc12` the logD was 3.03.
For `COc1c(-c2ccccc2)oc2ccccc2c1=O`, the logD was 3.18.
For `COc1ccc2oc(-c3ccccc3)cc(=O)c2c1`, the logD was 3.22.
`COc1ccc2c(=O)cc(-c3ccccc3)oc2c1O` showed a logD of 2.9.
`O=c1cc(-c2ccccc2O)oc2ccccc12` showed a logD of 3.01.
In the case of `COc1ccccc1-c1cc(=O)c2ccccc2o1`, the logD is reported as 3.14.
